Test results reported in patent US8952024B2, “Herbicidal pyrimidone derivatives” (E I du Pont de Nemours and Company, priority 2009, dated 2015).

How the values were obtained:
Assay in all cases: Test B pre-/postemergence plant response
Type in all cases: in vivo
[1] = system: goosegrass (Eleusine indica); conditions: Preemergence, 62 g ai/ha; scale 0 to 100, 0 no effect, 100 complete control
[2] = system: sunflower (common oilseed sunflower, Helianthus annuus); conditions: Preemergence
Outline: (§1)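 Plants treated either at seeding (loam/sand soil) or postemergence at 2 to 18 cm height, using a surfactant-containing non-phytotoxic solvent formulation. Evaluation was visual after 13 to 15 days, 0 to 100 scale relative to controls.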

[3] = system: corn (Zea mays)
Outline: as §1

[4] = system: woolly cupgrass (Eriochloa villosa)
Outline: as §1

[5] = system: large crabgrass (Digitaria sanguinalis)
Outline: as §1

[6] = system: nightshade (eastern black nightshade, Solanum ptycanthum); conditions: Preemergence
Outline: as §1

[7] = system: goosegrass (Eleusine indica)
Outline: as §1

[8] = system: pigweed (Amaranthus retroflexus)
Outline: as §1

[9] = system: Surinam grass (Brachiaria decumbens)
Outline: as §1

[10] = system: lambsquarters (Chenopodium album)
Outline: as §1

[11] = system: galium (catchweed bedstraw, Galium aparine); conditions: Preemergence
Outline: as §1

[12] = system: Italian ryegrass (Lolium multiflorum)
Outline: as §1

[13] = 31 g ai/ha, scale 0 to 100 (0 no effect, 100 complete control)
[14] = 62 g ai/ha, scale 0 to 100, 0 no effect, 100 complete control
[15] = 250 g ai/ha, Preemergence, 0 to 100 scale
[16] = Postemergence, 31 g ai/ha, scale 0 to 100 (0 no effect, 100 complete control)
[17] = Postemergence, 62 g ai/ha, scale 0 (no effect) to 100 (complete control), 13 to 15 days
[18] = Postemergence, 125 g ai/ha, visual rating after 13 to 15 days, scale 0 (no effect) to 100 (complete control)
[19] = Postemergence, 250 g ai/ha, scale 0 to 100
[20] = Preemergence, 31 g ai/ha, scale 0 to 100 (0 no effect, 100 complete control)
[21] = Preemergence, 62 g ai/ha, scale 0 to 100, 0 no effect, 100 complete control
[22] = Preemergence, 125 g ai/ha, 0 to 100 scale

## O=C1CCCC(O)=C1C(=O)c1cnc(-c2cccc(Cl)c2)n(-c2ccccc2)c1=O [Compound 34]
[1]
  Plant response rating, Goosegrass: 100
[2]; 250 g ai/ha, 0 to 100 scale
  Plant response rating, Sunflower: 90
[2]; [13]
  Plant response rating, Sunflower: 55
[2]; [14]
  Plant response rating, Sunflower: 70
[2]; 125 g ai/ha, 0 to 100 scale
  Sunflower plant response rating: 80
[3]; [15]
  Plant response rating, Corn: 0
[3]; [16]
  Plant response rating, Corn: 0
[3]; [17]
  Plant response rating, Corn: 0
[3]; [18]
  Plant response rating, Corn: 45
[3]; [19]
  Corn plant response rating: 50
[3]; [20]
  Plant response rating, Corn: 0
[3]; [21]
  Plant response rating, Corn: 0
[3]; [22]
  Corn plant response rating: 0
[4]; [15]
  Plant response rating, Cupgrass, Woolly: 100
[4]; [16]
  Plant response rating, Cupgrass, Woolly: 80
[4]; [17]
  Plant response rating, Cupgrass, Woolly: 80
[4]; [18]
  Plant response rating, Cupgrass, Woolly: 90
[4]; [19]
  Cupgrass, Woolly plant response rating: 95
[4]; [20]
  Plant response rating, Cupgrass, Woolly: 100
[4]; [21]
  Plant response rating, Cupgrass, Woolly: 100
[4]; [22]
  Cupgrass, Woolly plant response rating: 100
[5]; [15]
  Plant response rating, Crabgrass, Large: 100
[5]; [16]
  Plant response rating, Crabgrass, Large: 80
[5]; [17]
  Plant response rating, Crabgrass, Large: 85
[5]; [18]
  Plant response rating, Crabgrass, Large: 95
[5]; [19]
  Crabgrass, Large plant response rating: 98
[5]; [20]
  Plant response rating, Crabgrass, Large: 55
[5]; [21]
  Plant response rating, Crabgrass, Large: 100
[5]; [22]
  Crabgrass, Large plant response rating: 100
[6]; 250 g ai/ha, 0 to 100 scale
  Plant response rating, Nightshade: 100
[6]; [13]
  Plant response rating, Nightshade: 55
[6]; [14]
  Plant response rating, Nightshade: 95
[6]; 125 g ai/ha, 0 to 100 scale
  Nightshade plant response rating: 100
[7]; [15]
  Plant response rating, Goosegrass: 100
[7]; [17]
  Plant response rating, Goosegrass: 80
[7]; [18]
  Plant response rating, Goosegrass: 90
[7]; [19]
  Goosegrass plant response rating: 95
[7]; [20]
  Plant response rating, Goosegrass: 95
[7]; [22]
  Goosegrass plant response rating: 100
[8]; [15]
  Plant response rating, Pigweed: 100
[8]; [17]
  Plant response rating, Pigweed: 90
[8]; [18]
  Plant response rating, Pigweed: 98
[8]; [20]
  Plant response rating, Pigweed: 100
[8]; [21]
  Plant response rating, Pigweed: 100
[8]; [22]
  Pigweed plant response rating: 100
[9]; [15]
  Plant response rating, Surinam Grass: 90
[9]; [17]
  Plant response rating, Surinam Grass: 75
[9]; [18]
  Plant response rating, Surinam Grass: 80
[9]; [20]
  Plant response rating, Surinam Grass: 5
[9]; [21]
  Plant response rating, Surinam Grass: 60
[9]; [22]
  Surinam Grass plant response rating: 65
[10]; [15]
  Plant response rating, Lambsquarters: 100
[10]; [17]
  Plant response rating, Lambsquarters: 98
[10]; [18]
  Plant response rating, Lambsquarters: 100
[10]; [19]
  Lambsquarters plant response rating: 100
[10]; [20]
  Plant response rating, Lambsquarters: 100
[10]; [21]
  Plant response rating, Lambsquarters: 100
[10]; [22]
  Lambsquarters plant response rating: 100
[11]; 250 g ai/ha, 0 to 100 scale
  Plant response rating, Galium: 98
[11]; [13]
  Plant response rating, Galium: 10
[11]; [14]
  Plant response rating, Galium: 50
[11]; 125 g ai/ha, 0 to 100 scale
  Galium plant response rating: 90
[12]; [15]
  Plant response rating, Ryegrass, Italian: 10
[12]; [17]
  Plant response rating, Ryegrass, Italian: 10
[12]; [18]
  Plant response rating, Ryegrass, Italian: 20
[12]; [20]
  Plant response rating, Ryegrass, Italian: 0
[12]; [21]
  Plant response rating, Ryegrass, Italian: 0
[12]; [22]
  Ryegrass, Italian plant response rating: 5
